The values that follow come from patent publication US7763621B2, “Vitronectin receptor antagonist derivatives, method for preparing same, use thereof as medicines and pharmaceutical compositions containing same” (Galapagos SAS, priority 2002, dated 2010).

Molecules are shown by their SMILES.

One experiment has as its target human αVβ3 receptor (Homo sapiens, UniProt P05106+P06756). Description: Kistrin/Vitronectin receptor (αVβ3) ELISA test. Conditions: co-incubated 3 hours at ambient temperature, read-out: K/VnR IC50. It counts as binding. As for the experimental part:
Pharmacological Test: Kistrin/Vitronectin Receptor (αVβ3) ELISA Test
96-well MaxiSorp plates are coated overnight at […] with 100 μl of Kistrin at 1 μg/ml (dilution in coating buffer: 0.05M (carbonate)/NaOH pH 9.6. The next day, the wells are emptied and the ligands (kistrin) are then fixed (fixation buffers: PBS containing 0.5% BSA (pH=7.4)) for 1 hour at ambient temperature under gentle stirring of 125 rpm. The wells are washed six times (washing buffer: PBS containing 0.05% Tween 20 (pH 7.7) then the following is added per well and in this order:
40 μl of incubation buffer
10 μl of the dilution of the product to be tested (the products are diluted in a 50:50 DMSO/water mixture)
50 μl of human αVβ3 receptor (cf Pytella et al. Methods Enzymol. (1987) 144 (Dilution in incubation buffer, adapted according to the batch of receptor and according to the ligand). The ligand, the αVβ3 receptor and the products to be studied are co-incubated for 3 hours at ambient temperature with gentle stirring of 125 rpm.
The wells are again washed six times, then incubated for 2 hours at ambient temperature with gentle stirring of 125 rpm, in the presence of 100 μl of anti-receptor antibody coupled to a peroxidase (The 4B12-HRP antibody is diluted in incubation buffer (50 mM TRIS pH 7.4; 0.5% BSA; 0.05% Tween 20; 1 mM MnCl2; 50 μM CaCl2; 50 μM MgCl2; 100 mM NaCl). The dilution is to be adapted according to the batch of receptor.
The wells are then washed six times before measurement of the ligand-receptor bond is carried out using a peroxidase developer kit (TBM Microwell Peroxidase Substrate System Kirkegaard; Ref cat 50-76-00).
This kit contains a flask A of substrate (3,3′,5,5′-tetramethylebenzidine at 0.4 g/l) and a flask B (0.02% H2O2 in Citrate/Citric acid). Extemporaneously, one volume of A is mixed with one volume of B, then the reaction mixture is distributed at a rate of 100 μl/well.
The enzymatic reaction develops between 6 to 10 minutes for Kistrin/αVβ3 then its development is stopped by the addition of 100 μl of 1M phosphoric acid. The optical density is determined at 450 nm.
Expression of the Results
The following curve is plotted: the bond percentage as a function of the logarithm of each concentration of the tested product. For each product the IC50 is determined according to the following formula: IC50=(B0+Bmin)/2
B0=Maximum bond in the absence of any product
Bmin=Minimum bond in the presence of the highest concentration of the product.

The next experiment concerns TPXT rats. Description: Hypercalcemia induced by the parathyroid hormone (PTH) in a thyroparathyroidectomized (TPXT) rat model. The settings on record: doses ranging from twice 1 mg/kg to twice 10 mg/kg by subcutaneous route in the rat, at time 0 and 3 hours; serum Ca at 6 hours. It counts as in vivo. As for the experimental part:
Hypercalcemia induced by the parathyroid hormone (PTH) in a thyroparathyroidectomized (TPXT) rat model
Stimulation of bone resorption is induced in TPXT rats by perfusion of PTH and the variations of bone resorption are monitored by the concentration of calcium in the serum.
Male Sprague Dawley rats weighing 150-200 g are thyroparathyroidectomized. The rats are subjected to a standard diet containing 7 g Ca/kg (UAR) and Volvic water. The effectiveness of the thyroparathyroidectomy is tested by measuring the concentrations of Ca in the serum 8 days after the operation in animals which have been starved since the previous day. The rats are considered as thyroparathyroidectomized when the Ca levels in the serum are less than 80 mg/l. The PTH (1-34) of the rat (Bachem) is dissolved in 0.15M of NaCl Cys.HCl 2% and delivered by osmotic minipumps (ALZET 2001D) at a dose of 200 pmol/kg/h. The minipumps are introduced into the intraperitoneal cavities under anaesthesia (ketamine—75 mg/kg and acepromazine—2.5 mg/kg) of the TPXT rats which have been starved since the previous day. The control TPXT rats receive the minipumps filled with the PTH vehicle.
Either the product to be tested or the vehicle (controls and rats treated with the PTH) are administered twice by sub-cutaneous route (2 ml/kg of body weight) at time 0 and 3 hours after the start of the infusion of PTH. The test is continued for the next 6 hours. At the end of the treatment, all the blood is collected after decapitation. The blood samples are centrifuged at 3000 rpm for 15 minutes (CR422 Jouan) in order to obtain the serum.
The total concentrations of Ca in the serum are measured by colorimetry (Ciba-Corning) using an IEMS Labsystems microplate reading system, at 540 nm.
The difference between the average calcemia values of the treated rats and the control groups is analyzed by variance and by the Dunnett test.
The activity of a product is calculated by the following formula: […]

Chain of human αVβ3 receptor (P06756 31-889 limits assumed): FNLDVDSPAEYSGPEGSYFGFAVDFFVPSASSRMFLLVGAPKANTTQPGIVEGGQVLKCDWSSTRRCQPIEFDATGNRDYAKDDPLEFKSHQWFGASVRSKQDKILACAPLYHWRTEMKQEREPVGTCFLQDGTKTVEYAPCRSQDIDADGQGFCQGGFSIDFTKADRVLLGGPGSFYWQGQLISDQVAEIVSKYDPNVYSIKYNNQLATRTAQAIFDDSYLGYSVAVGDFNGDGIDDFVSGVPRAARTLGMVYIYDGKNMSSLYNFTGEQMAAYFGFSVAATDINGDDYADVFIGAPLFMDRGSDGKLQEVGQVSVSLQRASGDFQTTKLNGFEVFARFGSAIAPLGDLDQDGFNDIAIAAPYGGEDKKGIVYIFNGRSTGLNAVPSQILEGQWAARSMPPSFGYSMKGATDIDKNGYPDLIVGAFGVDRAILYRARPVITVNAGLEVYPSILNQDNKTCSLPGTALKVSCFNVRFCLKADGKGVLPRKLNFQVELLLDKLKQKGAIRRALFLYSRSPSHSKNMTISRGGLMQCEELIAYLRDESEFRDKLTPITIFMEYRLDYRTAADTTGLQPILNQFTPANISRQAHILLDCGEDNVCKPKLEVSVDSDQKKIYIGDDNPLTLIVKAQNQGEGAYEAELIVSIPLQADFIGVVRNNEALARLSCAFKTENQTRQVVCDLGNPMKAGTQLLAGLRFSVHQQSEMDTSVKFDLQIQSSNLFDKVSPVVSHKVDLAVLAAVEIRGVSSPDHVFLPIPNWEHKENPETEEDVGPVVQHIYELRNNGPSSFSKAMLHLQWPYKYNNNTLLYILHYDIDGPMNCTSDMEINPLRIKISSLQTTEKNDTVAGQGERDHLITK
Chain of human αVβ3 receptor (P06756 891-1048 partner limits assumed): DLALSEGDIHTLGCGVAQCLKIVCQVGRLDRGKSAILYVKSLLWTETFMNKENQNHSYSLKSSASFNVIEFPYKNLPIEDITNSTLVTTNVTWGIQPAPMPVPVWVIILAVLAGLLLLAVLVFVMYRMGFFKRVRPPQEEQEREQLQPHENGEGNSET
Chain of human αVβ3 receptor (P05106 27-788): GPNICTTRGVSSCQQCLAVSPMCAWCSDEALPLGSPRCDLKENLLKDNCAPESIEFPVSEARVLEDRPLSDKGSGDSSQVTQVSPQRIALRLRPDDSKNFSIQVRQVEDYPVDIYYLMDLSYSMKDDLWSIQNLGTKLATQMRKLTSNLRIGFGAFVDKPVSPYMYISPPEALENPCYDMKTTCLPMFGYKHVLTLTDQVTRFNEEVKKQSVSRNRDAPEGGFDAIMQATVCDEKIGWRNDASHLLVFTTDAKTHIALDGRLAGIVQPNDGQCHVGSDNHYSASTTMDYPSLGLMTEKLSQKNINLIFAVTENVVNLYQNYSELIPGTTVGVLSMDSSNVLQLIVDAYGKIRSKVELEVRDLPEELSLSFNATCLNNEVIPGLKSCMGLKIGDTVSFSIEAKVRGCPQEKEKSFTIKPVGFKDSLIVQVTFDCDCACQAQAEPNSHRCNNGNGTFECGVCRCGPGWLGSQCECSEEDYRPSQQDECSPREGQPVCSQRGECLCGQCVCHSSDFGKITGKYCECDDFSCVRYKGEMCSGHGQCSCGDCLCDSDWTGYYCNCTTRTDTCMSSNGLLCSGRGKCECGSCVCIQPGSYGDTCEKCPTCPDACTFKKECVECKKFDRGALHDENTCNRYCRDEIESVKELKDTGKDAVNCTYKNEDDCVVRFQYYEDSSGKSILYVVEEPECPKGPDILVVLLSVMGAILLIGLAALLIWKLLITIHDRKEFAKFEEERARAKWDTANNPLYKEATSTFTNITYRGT

For `CCc1c(NCC(NC(=O)OCc2ccccc2)C(=O)O)ncnc1N1CCC(C(=O)N=C2NCCCN2)CC1` (racemic) [Example 2, 3-[[5-ethyl-6-[4-[(1,2,3,4,5,6-hexahydro-2-pyrimidinyl)iminocarbonyl]-1-piperidinyl]-4-pyrimidinyl]amino]-N-[(phenylmethoxy)carbonyl]alanine], the IC50 at human αVβ3 receptor stood at 160 nM.

Regarding `Cc1c(NCC(NC(=O)OCc2ccccc2)C(=O)O)ncnc1N1CCC(c2ccc3c(n2)NCCC3)CC1` (racemic) [Example 3, 3-[[6-[4-(1,2,3,4-tetrahydro-1,8-naphthyridin-7-yl)-1-piperidinyl]-5-methyl-4-pyrimidinyl]amino]-N-[(phenylmethoxy)carbonyl]alanine], the IC50 at human αVβ3 receptor worked out at 3.1 nM.

Take `Cc1c(NC[C@H](NC(=O)OCc2ccccc2)C(=O)O)ncnc1N1CCC(c2ccc3c(n2)NCCC3)CC1` [Example 6, 3-[[5-methyl-6-[4-(1,2,3,4-tetrahydro-1,8-naphthyridin-7-yl)-1-piperidinyl]-4-pyrimidinyl]amino]-N-[(phenylmethoxy)carbonyl]alanine, bis(trifluoroacetate)]: the “activity against PTH-induced hypercalcemia (total Ca in the serum)” value with TPXT rats is on record as “active”. The same measure, in the same setting: then `CCc1c(NC[C@H](NC(=O)OCc2ccccc2)C(=O)O)ncnc1N1CCC(c2ccc3c(n2)NCCC3)CC1` [Example 9, 3-[[5-ethyl-6-[4-(1,2,3,4-tetrahydro-1,8-naphthyridin-7-yl)-1-piperidinyl]-4-pyrimidinyl]amino]-N-[(phenylmethoxy)carbonyl]alanine, bis(trifluoroacetate)], with “active”. As for `CCc1c(NCC(NC(=O)OCc2ccccc2)C(=O)O)ncnc1N1CCC(c2ccc3c(n2)NCCC3)CC1` (racemic) [Example 1, 3-[[5-ethyl-6-[4-(1,2,3,4-tetrahydro-1,8-naphthyridin-7-yl)-1-piperidinyl]-4-pyrimidinyl]amino]-N-[(phenylmethoxy)carbonyl]alanine, bis(trifluoroacetate)], the IC50 on human αVβ3 receptor turned out to be 3 nM. On the same count and under the same terms, the same measure for `Cc1c(NCC(NC(=O)OCc2ccccc2)C(=O)O)ncnc1N1CCC(C(=O)N=C2NCCCN2)CC1` (racemic) [Example 4, 3-[[6-[4-[(1,2,3,4,5,6-hexahydro-2-pyrimidinyl)iminocarbonyl]-1-piperidinyl]-5-methyl-4-pyrimidinyl]amino]-N-[(phenylmethoxy)carbonyl]alanine]: 5.1 nM. As to `CCc1c(NC[C@H](NC(=O)OCc2ccccc2)C(=O)OC(C)C)ncnc1N1CCC(c2ccc3c(n2)NCCC3)CC1` [Example 13, isopropyl 3-[[6-[4-(1,2,3,4-tetrahydro-1,8-naphthyridin-7-yl)-1-piperidinyl]-5-ethyl-4-pyrimidinyl]amino]-N-[(phenylmethoxy)carbonyl]alaninate], the “activity against PTH-induced hypercalcemia (total Ca in the serum)” value with TPXT rats is listed as “active”.
